Test results as given in ChEMBL document CHEMBL4002566, “S-substituted 3,5-dinitrophenyl 1,3,4-oxadiazole-2-thiols and tetrazole-5-thiols as highly efficient antitubercular agents” (Eur J Med Chem, 2017).
pIC50: −log10 of the molar value. Converted amounts (≈) assume the structure as drawn.

Experiments:
Candida albicans [1] = test: Antifungal activity against Candida albicans ATCC 44859 after 24 hrs by broth microdilution method; type: functional; details: ATCC 44859, 24 h
Trichosporon asahii [2] = test: Antifungal activity against Trichosporon asahii 1188 after 48 hrs by broth microdilution method; type: functional; details: Trichosporon asahii, 1188, 48 h
[3] = Cytotoxicity against human A431 cells assessed as cell viability at 30 uM after 48 hrs by MTS assay relative to control; type: cell-based, A-431; details: read-out: Activity
Klebsiella pneumoniae [4] = test: Antibacterial activity against Klebsiella pneumoniae HK11750/08 after 48 hrs by broth microdilution method; type: functional; details: HK11750/08, 48 h
[5] = system: Mycobacterium tuberculosis; test: Antimycobacterial activity against Mycobacterium tuberculosis CNCTC My 331/88 after 21 days by micromethod; type: functional; details: CNCTC My 331/88, 504 h
Candida albicans [6] = test: Antifungal activity against Candida albicans ATCC 44859 after 48 hrs by broth microdilution method; type: functional; details: ATCC 44859, 48 h
Nakaseomyces glabratus [7] = test: Antifungal activity against Candida glabrata 20/I after 48 hrs by broth microdilution method; type: functional
[8] = Selectivity index, ratio of IC50 for human HepG2 cells to MIC for Mycobacterium tuberculosis; type: toxicity; details: read-out: Selectivity Index
Candida tropicalis [9] = test: Antifungal activity against Candida tropicalis 156 after 48 hrs by broth microdilution method; type: functional; details: Candida tropicalis, 156, 48 h
Trichosporon asahii [10] = test: Antifungal activity against Trichosporon asahii 1188 after 24 hrs by broth microdilution method; type: functional; details: Trichosporon asahii, 1188, 24 h
[11] = Cytotoxicity against human HuH7 cells assessed as cell viability at 30 uM after 48 hrs by MTS assay relative to control; type: cell-based, Huh-7; details: read-out: Activity
Staphylococcus aureus [12] = test: Antibacterial activity against Staphylococcus aureus ATCC 6538 after 48 hrs by broth microdilution method; type: functional; details: ATCC 6538, 48 h
Pichia kudriavzevii [13] = test: Antifungal activity against Candida krusei E28 after 24 hrs by broth microdilution method; type: functional; details: E28, 24 h
MDCK = test: Cytotoxicity against MDCK cells assessed as cell viability after 48 hrs by MTS assay; type: cell-based; details: Canis lupus familiaris
Klebsiella pneumoniae [14] = test: Antibacterial activity against extended spectrum beta-lactamase producing Klebsiella pneumoniae HK14368/08 after 24 hrs by broth microdilution method; type: functional; details: HK14368/08, 24 h
Huh-7 = test: Cytotoxicity against human HuH7 cells assessed as cell viability after 48 hrs by MTS assay; type: cell-based; details: Huh-7, 48 h
Aspergillus fumigatus [15] = test: Antifungal activity against Aspergillus fumigatus 231 after 48 hrs by broth microdilution method; type: functional; details: Aspergillus fumigatus, 231, 48 h
Candida tropicalis [16] = test: Antifungal activity against Candida tropicalis 156 after 24 hrs by broth microdilution method; type: functional; details: Candida tropicalis, 156, 24 h
Mycobacterium avium [17] = test: Antimycobacterial activity against Mycobacterium avium CNCTC My 330/88 after 21 days by micromethod; type: functional; details: CNCTC My 330/88, 504 h
Mycobacterium kansasii [18] = test: Antimycobacterial activity against Mycobacterium kansasii CNCTC My 235/80 after 14 days by micromethod; type: functional; details: CNCTC My 235/80, 336 h
Enterococcus sp. [19] = test: Antibacterial activity against Enterococcus sp. HK14365/08 after 24 hrs by broth microdilution method; type: functional; details: HK14365/08, 24 h
Enterococcus sp. [20] = test: Antibacterial activity against Enterococcus sp. HK14365/08 after 48 hrs by broth microdilution method; type: functional; details: HK14365/08, 48 h
Pseudomonas aeruginosa [21] = test: Antibacterial activity against Pseudomonas aeruginosa ATCC 9027 after 24 hrs by broth microdilution method; type: functional; details: ATCC 9027, 24 h
Mycobacterium kansasii [22] = test: Antimycobacterial activity against Mycobacterium kansasii CNCTC My 235/80 after 7 days by micromethod; type: functional; details: CNCTC My 235/80, 168 h
[23] = system: Trichophyton mentagrophytes; test: Antifungal activity against Trichophyton mentagrophytes 445 after 72 hrs by broth microdilution method; type: functional; details: Trichophyton mentagrophytes, 445, 72 h
Escherichia coli [24] = test: Antibacterial activity against Escherichia coli ATCC 8739 after 48 hrs by broth microdilution method; type: functional; details: ATCC 8739, 48 h
[25] = system: Trichophyton mentagrophytes; test: Antifungal activity against Trichophyton mentagrophytes 445 after 120 hrs by broth microdilution method; type: functional; details: Trichophyton mentagrophytes, 445, 120 h
Klebsiella pneumoniae [26] = test: Antibacterial activity against Klebsiella pneumoniae HK11750/08 after 24 hrs by broth microdilution method; type: functional; details: HK11750/08, 24 h
Mycobacterium kansasii [27] = test: Antimycobacterial activity against Mycobacterium kansasii 6509/96 clinical isolate after 21 days by micromethod; type: functional; details: 6509/96, 504 h
Mycobacterium kansasii [28] = test: Antimycobacterial activity against Mycobacterium kansasii 6509/96 clinical isolate after 7 days by micromethod; type: functional; details: 6509/96, 168 h
[29] = Cytotoxicity against MDCK cells assessed as cell viability at 30 uM after 48 hrs by MTS assay relative to control; type: cell-based, Canis lupus familiaris; details: dog, read-out: Activity
Nakaseomyces glabratus [30] = test: Antifungal activity against Candida glabrata 20/I after 24 hrs by broth microdilution method; type: functional
HepG2 = test: Cytotoxicity against human HepG2 cells assessed as cell viability after 48 hrs by MTS assay; type: cell-based; details: HepG2, 48 h
[31] = system: Staphylococcus epidermidis; test: Antibacterial activity against Staphylococcus epidermidis HK6996/08 after 24 hrs by broth microdilution method; type: functional; details: HK6996/08, 24 h
Mycobacterium kansasii [32] = test: Antimycobacterial activity against Mycobacterium kansasii CNCTC My 235/80 after 21 days by micromethod; type: functional; details: CNCTC My 235/80, 504 h
Pseudomonas aeruginosa [33] = test: Antibacterial activity against Pseudomonas aeruginosa ATCC 9027 after 48 hrs by broth microdilution method; type: functional; details: ATCC 9027, 48 h
Staphylococcus aureus [34] = test: Antibacterial activity against methicillin-resistant Staphylococcus aureus HK5996/08 after 48 hrs by broth microdilution method; type: functional; details: HK5996/08, 48 h
Aspergillus fumigatus [35] = test: Antifungal activity against Aspergillus fumigatus 231 after 24 hrs by broth microdilution method; type: functional; details: Aspergillus fumigatus, 231, 24 h
Staphylococcus aureus [36] = test: Antibacterial activity against methicillin-resistant Staphylococcus aureus HK5996/08 after 24 hrs by broth microdilution method; type: functional; details: HK5996/08, 24 h
[37] = system: Mycobacterium tuberculosis; test: Antimycobacterial activity against Mycobacterium tuberculosis CNCTC My 331/88 after 14 days by micromethod; type: functional; details: CNCTC My 331/88, 336 h
[38] = Cytotoxicity against human HepG2 cells assessed as cell viability at 30 uM after 48 hrs by MTS assay relative to control; type: cell-based; details: read-out: Activity
Lichtheimia corymbifera [39] = test: Antifungal activity against Absidia corymbifera 272 after 48 hrs by broth microdilution method; type: functional; details: Lichtheimia corymbifera, 272, 48 h
Klebsiella pneumoniae [40] = test: Antibacterial activity against extended spectrum beta-lactamase producing Klebsiella pneumoniae HK14368/08 after 48 hrs by broth microdilution method; type: functional; details: HK14368/08, 48 h
[41] = system: Staphylococcus epidermidis; test: Antibacterial activity against Staphylococcus epidermidis HK6996/08 after 48 hrs by broth microdilution method; type: functional; details: HK6996/08, 48 h
Escherichia coli [42] = test: Antibacterial activity against Escherichia coli ATCC 8739 after 24 hrs by broth microdilution method; type: functional; details: ATCC 8739, 24 h
Mycobacterium kansasii [43] = test: Antimycobacterial activity against Mycobacterium kansasii 6509/96 clinical isolate after 14 days by micromethod; type: functional; details: 6509/96, 336 h
A-431 = test: Cytotoxicity against human A431 cells assessed as cell viability after 48 hrs by MTS assay; type: cell-based; details: A-431, 48 h
Pichia kudriavzevii [44] = test: Antifungal activity against Candida krusei E28 after 48 hrs by broth microdilution method; type: functional; details: E28, 48 h
Lichtheimia corymbifera [45] = test: Antifungal activity against Absidia corymbifera 272 after 24 hrs by broth microdilution method; type: functional; details: Lichtheimia corymbifera, 272, 24 h
Mycobacterium avium [46] = test: Antimycobacterial activity against Mycobacterium avium CNCTC My 330/88 after 14 days by micromethod; type: functional; details: CNCTC My 330/88, 336 h
Staphylococcus aureus [47] = test: Antibacterial activity against Staphylococcus aureus ATCC 6538 after 24 hrs by broth microdilution method; type: functional; details: ATCC 6538, 24 h

Structure (SMILES): O=[N+]([O-])c1cc(-n2nnnc2SCc2ccc(Cl)c(Cl)c2)cc([N+](=O)[O-])c1
- MIC (Candida albicans [1]): > 500 µM
- MIC (Trichosporon asahii [2]): > 500 µM
- viability at 48 h, 30 µM [3]: 90%
- MIC (Klebsiella pneumoniae [4]): > 500 µM
- MIC [5]: 0.25 µM (≈ 0.107 µg/mL)
- MIC (Candida albicans [6]): > 500 µM
- MIC (Nakaseomyces glabratus [7]): > 500 µM
- selectivity ratio [8]: > 120
- MIC (Candida tropicalis [9]): > 500 µM
- MIC (Trichosporon asahii [10]): > 500 µM
- viability at 48 h, 30 µM [11]: 137%
- MIC (Staphylococcus aureus [12]): 62 µM (≈ 26.5 µg/mL)
- MIC (Pichia kudriavzevii [13]): > 500 µM
- pIC50 (MDCK): < 4.52
- MIC (Klebsiella pneumoniae [14]): > 500 µM
- pIC50 (Huh-7): < 4.52
- MIC (Aspergillus fumigatus [15]): > 500 µM
- MIC (Candida tropicalis [16]): > 500 µM
- MIC (Mycobacterium avium [17]): 32 µM (≈ 13.7 µg/mL)
- MIC (Mycobacterium kansasii [18]): 1 µM (≈ 0.427 µg/mL)
- MIC (Enterococcus sp. [19]): > 500 µM
- MIC (Enterococcus sp. [20]): > 500 µM
- MIC (Pseudomonas aeruginosa [21]): > 500 µM
- MIC (Mycobacterium kansasii [22]): 0.5 µM (≈ 0.214 µg/mL)
- MIC [23]: > 500 µM
- MIC (Escherichia coli [24]): > 500 µM
- MIC [25]: > 500 µM
- MIC (Klebsiella pneumoniae [26]): > 500 µM
- MIC (Mycobacterium kansasii [27]): 1 µM (≈ 0.427 µg/mL)
- MIC (Mycobacterium kansasii [28]): 0.25 µM (≈ 0.107 µg/mL)
- viability at 48 h, 30 µM [29]: 84%
- MIC (Nakaseomyces glabratus [30]): > 500 µM
- pIC50 (HepG2): < 4.52
- MIC [31]: 250 µM (≈ 107 µg/mL)
- MIC (Mycobacterium kansasii [32]): 1 µM (≈ 0.427 µg/mL)
- MIC (Pseudomonas aeruginosa [33]): > 500 µM
- MIC (Staphylococcus aureus [34]): 125 µM (≈ 53.4 µg/mL)
- MIC (Aspergillus fumigatus [35]): > 500 µM
- MIC (Staphylococcus aureus [36]): 125 µM (≈ 53.4 µg/mL)
- MIC [37]: 0.25 µM (≈ 0.107 µg/mL)
- viability at 48 h, 30 µM [38]: 145%
- MIC (Lichtheimia corymbifera [39]): > 500 µM
- MIC (Klebsiella pneumoniae [40]): > 500 µM
- MIC [41]: 250 µM (≈ 107 µg/mL)
- MIC (Escherichia coli [42]): > 500 µM
- MIC (Mycobacterium kansasii [43]): 0.5 µM (≈ 0.214 µg/mL)
- pIC50 (A-431): < 4.52
- MIC (Pichia kudriavzevii [44]): > 500 µM
- MIC (Lichtheimia corymbifera [45]): > 500 µM
- MIC (Mycobacterium avium [46]): 8 µM (≈ 3.42 µg/mL)
- MIC (Staphylococcus aureus [47]): 62 µM (≈ 26.5 µg/mL)

Structure (SMILES): O=[N+]([O-])c1cc(-c2nnc(SCc3cccc(Cl)c3)o2)cc([N+](=O)[O-])c1
- viability at 48 h, 30 µM [3]: 105%
- MIC [5]: 0.06 µM (≈ 0.0236 µg/mL)
- selectivity ratio [8]: > 1000
- viability at 48 h, 30 µM [11]: 158%
- pIC50 (MDCK): < 4.52
- pIC50 (Huh-7): < 4.52
- MIC (Mycobacterium avium [17]): 8 µM (≈ 3.14 µg/mL)
- MIC (Mycobacterium kansasii [18]): 0.06 µM (≈ 0.0236 µg/mL)
- MIC (Mycobacterium kansasii [22]): 0.06 µM (≈ 0.0236 µg/mL)
- MIC (Mycobacterium kansasii [27]): 0.06 µM (≈ 0.0236 µg/mL)
- MIC (Mycobacterium kansasii [28]): 0.03 µM (≈ 0.0118 µg/mL)
- viability at 48 h, 30 µM [29]: 105%
- pIC50 (HepG2): < 4.52
- MIC (Mycobacterium kansasii [32]): 0.06 µM (≈ 0.0236 µg/mL)
- MIC [37]: 0.03 µM (≈ 0.0118 µg/mL)
- viability at 48 h, 30 µM [38]: 129%
- MIC (Mycobacterium kansasii [43]): 0.06 µM (≈ 0.0236 µg/mL)
- pIC50 (A-431): < 4.52
- MIC (Mycobacterium avium [46]): 4 µM (≈ 1.57 µg/mL)
